This passage reports melting point results from patent US6828315B1, “1-Amino triazoloc4,3-a! quinazoline-5-ones and/or -5-thiones inhibiting phosphodiesterase IV” (Warner-Lambert LLC, priority 1999, dated 2004).

As a reminder, the melting point is the temperature, or range, at which the solid turns liquid. For `COC(=O)C(c1ccccc1)n1c(=O)c2cc(Br)ccc2n2c(N(C)C)nnc12` (stereo not shown) [Compound 90, (7-Bromo-1-dimethylamino-5-oxo-5H-[1,2,4]triazolo[4,3-a]quinazolin-4-yl)-phenyl-acetic acid methyl ester], the melting point came to 243 °C.
The same measure for `O=C(Cn1nc(N2CCCCCC2)n2c3ccc(Cl)cc3c(=O)nc12)c1ccc(Cl)cc1` [Compound 132, 1-(azepan-1-yl)-7-chloro-3-[2-(4-chlorophenyl)-2-oxoethyl)-3H-[1,2,4]triazolo[4,3-a]quinazolin-5-one]: 238 °C; for `O=c1nc2n(Cc3cccnc3)nc(N3CCCCCC3)n2c2ccc(Br)cc12` [Compound 139, 1-(azepan-1-yl)-7-bromo-3-(pyridin-3-ylmethyl)-3H-[1,2,4]triazolo[4,3-a]quinazolin-5-one]: 192 °C; for `Nc1ccc2c(c1)c(=O)n(Cc1ccccc1)c1nnc(N3CCCC3)n21` [Compound 225, 7-Amino-4-benzyl-1-pyrrolidin-1-yl-4H-[1,2,4]triazolo[4,3-a]quinazolin-5-one]: 230 °C.
The figure for `O=c1c2cc(Br)ccc2n2c(N3CCCCCC3)nnc2n1CC=Cc1ccc(Cl)cc1` [Compound 38, 1-Azepan-1-yl-7-bromo-4-[3-(4-chloro-phenyl)-allyl]-4H-[1,2,4]triazolo[4,3-a]quinazolin-5-one] is 176 °C.
The figure for `O=c1nc2n(Cc3ccccc3Cl)nc(N3CCCCCC3)n2c2ccc(Cl)cc12` [Compound 113, 1-(azepan-1-yl)-7-chloro-3-(2-chlorobenzyl)-3H-[1,2,4]triazolo[4,3-a]quinazolin-5-one] is 228 °C; for `CN1CCN(c2nnc3n(Cc4ccccc4)c(=O)c4cc(Br)ccc4n23)CC1` [Compound 182, 4-Benzyl-7-bromo-1-(4-methyl-piperazin-1-yl)-4H-[1,2,4]triazolo[4,3-a]quinazolin-5-one] it is 230 °C.
The compound `Cc1ccc2c(c1)c(=O)n(Cc1ccccc1)c1nnc(N(C)C)n21` [Compound 192, 4-Benzyl-1-dimethylamino-7-methyl-4H-[1,2,4]triazolo[4,3-a]quinazolin-5-one] returned a melting point of 186 °C.
The figure for `O=c1c2cc(Br)ccc2n2c(N3CCCC3)nnc2n1CCO` [Compound 68, 7-Bromo-4-(2-hydroxy-ethyl)-1-pyrrolidin-1-yl-4H-[1,2,4]triazolo[4,3-a]quinazolin-5-one] is 240 °C; for `O=c1c2cc([N+](=O)[O-])ccc2n2c(N3CCCCCC3)nnc2n1Cc1ccccc1` [Compound 198, 1-Azepan-1-yl-4-benzyl-7-nitro-4H-[1,2,4]triazolo[4,3-a]quinazolin-5-one] it is 206 °C; for `O=c1nc2n(CCCc3ccccc3)nc(N3CCCCCC3)n2c2ccc(Cl)cc12` [Compound 129, 1-(azepan-1-yl)-7-chloro-3-(3-phenylpropyl)-3H-[1,2,4]triazolo[4,3-a]quinazolin-5-one] it is 130 °C.
The figure for `O=c1nc2n(Cc3cccnc3)nc(N3CCCCCC3)n2c2ccc(Cl)cc12` [Compound 126, 1-(azepan-1-yl)-7-chloro-3-(3-pyridylmethyl)-3H-[1,2,4]triazolo[4,3-a]quinazolin-5-one] is 184 °C.
The same measure for `C=CCn1nc(N2CCCCCC2)n2c3ccc(Cl)cc3c(=O)nc12` [Compound 110, 3-Allyl-1-azepan-1-yl-7-chloro-3H-[1,2,4]triazolo[4,3-a]quinazolin-5-one]: 173 °C; for `O=c1c2cc(Br)ccc2n2c(N3CCCC3)nnc2n1CC1CCCC1` [Compound 65, 7-Bromo-4-cyclopentylmethyl-1-pyrrolidin-1-yl-4H-[1,2,4]triazolo[4,3-a]quinazolin-5-one]: 155 °C; for `CN(C)c1nn(CC=Cc2ccccc2)c2nc(=O)c3cc(Br)ccc3n12` [Compound 155, 7-Bromo-1-dimethylamino-3-(3-phenyl-allyl)-3H-[1,2,4]triazolo[4,3-a]quinazolin-5-one]: 206 °C.
`COc1ccc(Cn2nc(N3CCCCCC3)n3c4ccc(Cl)cc4c(=O)nc23)cc1` [Compound 122, 1-(azepan-1-yl)-7-chloro-3-(4-methoxybenzyl)-3H-[1,2,4]triazolo[4,3-a]quinazolin-5-one] came in with a melting point of 164 to 165 °C.
The figure for `Cn1c(=O)c2cc(Cl)ccc2n2c(N3CCC(Cc4ccccc4)CC3)nnc12` [Compound 210, 1-(4-benzylpiperidin-1-yl)-7chloro-4-methyl-4H-[1,2,4]triazolo[4,3-a]quinazolin-5-one] is 180 °C; for `O=c1nc2n(Cc3cccc(Cl)c3)nc(N3CCCCCC3)n2c2ccc(Cl)cc12` [Compound 114, 1-(azepan-1-yl)-7-chloro-3-(3-chlorobenzyl)-3H-[1,2,4]triazolo[4,3-a]quinazolin-5one] it is 166 °C.
The figure for `O=c1c2cc(Br)ccc2n2c(N3CCCC3)nnc2n1CCOc1ccccc1` [Compound 71, 7-Bromo-4-(2-phenoxy-ethyl)-1-pyrrolidin-1-yl-4H-[1,2,4]triazolo[4,3-a]quinazolin-5-one] is 171 °C.
The figure for `COC(=O)c1ccc(Cn2c(=O)c3cc(C)ccc3n3c(N4CCCC4)nnc23)cc1` [Compound 95, 4(7-Methyl-5-oxo-1-pyrrolidin-1-yl-5H-[1,2,4]triazolo[4,3-a]quinazolin-4-ylmethyl)-benzoic acid methyl ester] is 230 °C; for `O=c1c2cc(Br)ccc2n2c(N3CCCC3)nnc2n1CC=Cc1ccccc1` [Compound 58, 7-Bromo-4-(3-phenyl-allyl)-1-pyrrolidin-1-yl-4H-[1,2,4]triazolo[4,3-a]quinazolin-5-one] it is 110 °C.
`N#Cc1ccc(Cn2nc(N3CCCCCC3)n3c4ccc(Cl)cc4c(=O)nc23)cc1` [Compound 119, 1-(azepan-1-yl)-7-chloro-3-(4-cyanobenzyl)-3H-[1,2,4]triazolo[4,3-a]quinazolin-5-one] registered a melting point above 260 °C.
The same measure for `COc1cccc(Cn2c(=O)c3cc(Cl)ccc3n3c(N4CCCCCC4)nnc23)c1` [Compound 17, 1-(azepan-1-yl)-7-chloro-4-(3-methoxybenzyl)-4H-[1,2,4]triazolo[4,3-a]quinazolin-5-one]: 138 °C; for `CCCCN(CCCC)c1nnc2n(C)c(=O)c3cc(Cl)ccc3n12` [Compound 167, 7-chloro-1-dibutylamino-4-methyl-4H-[1,2,4]triazolo[4,3-a]-quinazolin-5-one]: 112 °C; for `O=c1nc2n(Cc3ccc(F)cc3)nc(N3CCCCCC3)n2c2ccc(Cl)cc12` [Compound 117, 1-(azepan-1-yl)-7-chloro-3-(4-fluorobenzyl)-3H-[1,2,4)triazolo[4,3-a]quinazolin-5-one]: 224 °C.
The figure for `COc1ccc(CCn2nc(N3CCCCCC3)n3c4ccc(Cl)cc4c(=O)nc23)cc1` [Compound 128, 1-(azepan-1-yl)-7-chloro-3-[2-(4-methoxyphenyl)ethyl)-3H-[1,2,4]triazolo[4,3-a]quinazolin-5-one] is 196 °C; for `O=c1c2cc(Br)ccc2n2c(N3CCCCCC3)nnc2n1Cc1cccnc1` [Compound 36, 1-(azepan-1-yl)-7-bromo-4-(3-pyridinylmethyl)-4H-[1,2,4]triazolo[4,3-a]quinazolin-5-one] it is 180 °C.
The figure for `O=c1nc2n(Cc3ccc(C(F)(F)F)cc3)nc(N3CCCCCC3)n2c2ccc(Cl)cc12` [Compound 118, 1-(azepan-1-yl)-7-chloro-3-(4-(trifluoromethyl)benzyl)-3H-[1,2,4]triazolo[4,3-a]quinazolin-5-one] is 232 °C; for `Cn1c(=O)c2cc(Cl)ccc2n2c(N3CCCCCC3)nnc12` [Compound 203, 1-(azepan-1-yl)-7-chloro-4-methyl-4H-[1,2,4]triazolo[4,3-a]-quinazolin-5-one] it is 145 °C.
`O=C(O)Cc1ccc(Cn2c(=O)c3cc(Br)ccc3n3c(N4CCCC4)nnc23)cc1` [Compound 56, [4-(7-Bromo-5-oxo-1-pyrrolidin-1-yl-5H-[1,2,4]triazolo[4,3-a]quinazolin-4-ylmethyl)-phenyl]-acetic acid] registered a melting point of 260 °C.
The same measure for `O=c1c2cc(Br)ccc2n2c(N3CC=CCC3)nnc2n1Cc1ccccc1` [Compound 185, 4-Benzyl-7-bromo-1-(3,6-dihydro-2H-pyridin-1-yl)-4H-[1,2,4]triazolo[4,3-a]quinazolin-5-one]: 172 °C; for `O=c1nc2n(Cc3ccc4c(c3)OCO4)nc(N3CCCC3)n2c2ccc(Br)cc12` (hydrate or solvate) [Compound 149, 3-(benzo[1,3]dioxol-5-ylmethyl)-7-bromo-1-(pyrrolidin-1-yl)-3H-[1,2,4]triazolo[4,3-a]quinazolin-5-one]: 234 °C.
In the case of `CNc1nnc2n(Cc3ccccc3)c(=O)c3cc(Br)ccc3n12` [Compound 188, 4-Benzyl-7-bromo-1-methylamino-4H-[1,2,4]triazolo[4,3-a]quinazolin-5-one], the melting point stood at 238 °C.
The same measure for `COC(=O)c1cc(C(=O)Cn2c(=O)c3cc(Cl)ccc3n3c(N4CCCCCC4)nnc23)ccc1OC` [Compound 30, 5-[(1-(azepan-1-yl)-7-chloro-5-oxo-5H-[1,2,4]triazolo[4,3-a]-quinazolin-4-yl)acetyl]-2-methoxybenzoic acid methyl ester]: 140 °C; for `O=c1c2cc(Br)ccc2n2c(N3CCCC3)nnc2n1Cc1ccc2c(c1)OCO2` (hydrate or solvate) [Compound 53, 4-Benzo[1,3]dioxol-5-ylmethyl-7-bromo-1-pyrrolidin-1-yl-4H-[1,2,4]triazolo[4,3-a]quinazolin-5-one]: 194 °C.
The same measure for `Cc1ccc2c(c1)c(=O)n(Cc1ccccc1)c1nnc(N3CCSCC3)n21` [Compound 193, 4-Benzyl-7-methyl-1-thiomorpholin-4-yl-4H-[1,2,4]triazolo[4,3-a]quinazolin-5-one]: 265 °C; for `CCn1c(=O)c2cc(Cl)ccc2n2c(N3CCCCCC3)nnc12` [Compound 204, 1-(azepan-1-yl)-7-chloro-4-ethyl-4H-[1,2,4]triazolo[4,3-a]-quinazolin-5-one]: 98 to 100 °C.
